Assay results published in patent US6288265A, “Phloroglucidic acid and derivatives as antibacterial agents” (National Science Council, priority 1999, dated 2001).
In brackets after ≈: the same amount, converted by molar mass. Entries after “also recorded” stand apart in the source; their conditions may differ. Like-named read-outs stand apart in the source and are kept apart here.

Key:
S. aureus FDA 209P = test: Minimum inhibitory concentration, agar dilution, S. aureus FDA 209P; format: cell-based, Staphylococcus aureus FDA 209P; conditions: for MIC: Staphylococcus aureus, FDA209P, agar dilution, average of duplicate determinations; for antibacterial activity in words, S. aureus FDA 209P: compared with corresponding phloroglucides
Experimental: (§1) Determination of Minimum Inhibitory Concentrations. The screening experiments in vitro were carried out for antibacterial activities of the phloroglucide analogs II-VII, XII-XIV, bifunctional cephalosporins VIII and IX, as well as 7-(phloroglucidamido)cephalosporins X and XI. Cephalosporins XV and XVI were used as the reference compounds. The lowest concentrations of antibiotics needed for prevention of visible growth of microorganisms; reported as the average values of duplicate determinations. Minimum inhibitory concentrations (MIC) values obtained by use of an agar dilution method whereby organisms were deposited onto medicated agar plates by the replication device of Steers et al [Steers, F. et al. Antibiot. Chemother. 1959, 9, 307].

S. aureus 95 = test: Minimum inhibitory concentration, agar dilution, S. aureus 95; format: cell-based, Staphylococcus aureus 95; conditions: for activity against β-lactamase producing microorganisms, in words: i.e., S. aureus 95
Experimental: as §1

C. albicans = test: Minimum inhibitory concentration, agar dilution, C. albicans; format: cell-based; conditions: Candida albicans, read-out: Minimum Inhibitory Concentration (MIC), C. albicans
Experimental: as §1

Ps. aerureus 1101-75 = test: Minimum inhibitory concentration, agar dilution, Ps. 1101-75; format: cell-based, Pseudomonas aeruginosa
Experimental: as §1

PS. aerureus 18S-H = test: Minimum inhibitory concentration, agar dilution, Ps. 18S-H; format: cell-based, Pseudomonas aeruginosa 18S-H; conditions: Pseudomonas aeruginosa, 18SH, read-out: Minimum Inhibitory Concentration (MIC), PS. aerureus 18S-H
Experimental: as §1

[1] = test system: pathogenic microorganisms; test: Antibacterial activity in vitro (statements in words); format: cell-based
Experimental: as §1

[2] = target: T1, β-lactamase of S. aureus 95 (Staphylococcus aureus, UniProt P00807); test: Minimum protective concentration against β-lactamase of S. aureus 95; format: biochemical; conditions: protection of chromogenic cephem indicator from hydrolysis within 40 min, average of duplicates
T1 construct: chromogenic cephalosporin (nitrocefin type) hydrolysis
Description: (§2) Determination of Minimum Protective Concentrations. The β-lactamase inhibitory properties of cephalosporin-phloroglucide esters VIII and IX as well as 7-(phloroglucidamido)cephalosporins X and XI were studied. Cephalosporins XV and XVI as well as clavulanic acid (XVII) were used in vitro as the reference compound. The average values of duplicate determinations and the ability of compounds to inhibit the hydrolysis of 3-[E-(2,4-dinitro)styryl]-(6R,7R)-7-(2-thienylacetamido)-3-cephem-4-carboxylic acid by β-lactamases from S. aureus 95 and Ps. aeruginosa 18S-H. Minimum protective concentrations (MPC) values were determined by the procedure of O'Callaghan ct al. [O'Callaghan C. H. ct al. Antimicrob. Agents Chemother. 1972, 1, 283] and are the lowest concentrations of β-lactams needed to protect the indicator from hydrolysis by β-lactamases under standard test conditions within 40 min. The hydrolysis of indicator was evidenced by the appearance of a distinct red color.

[3] = test system: β-lactamase of PS. aeruginosa 18S-H; test: Minimum protective concentration against β-lactamase of Ps. aeruginosa 18S-H; format: biochemical; conditions: protection of chromogenic cephem indicator from hydrolysis within 40 min, average of duplicates
Description: as §2

[4] = test system: β-lactamases of S. aureus 95 and Ps. aeruginosa 18S-H; test: Behaviour towards β-lactamases (statements in words); format: biochemical
Description: as §2

[5] = Stability in the absence of β-lactamases in phosphate buffer solution; format: physicochemical; conditions: 37° C., pH 6.5
[6] = Staphylococcus aureus, 95, agar dilution, average of duplicates, β-lactamase-producing, methicillin resistant organism, read-out: Minimum Inhibitory Concentration (MIC), S. aureus 95
[7] = agar dilution, average of duplicate determinations
[8] = Pseudomonas aeruginosa, 110175, agar dilution, average of duplicate determinations, read-out: Minimum Inhibitory Concentration (MIC), Ps. aerureus 1101-75

T1 sequence (P00807 25-281): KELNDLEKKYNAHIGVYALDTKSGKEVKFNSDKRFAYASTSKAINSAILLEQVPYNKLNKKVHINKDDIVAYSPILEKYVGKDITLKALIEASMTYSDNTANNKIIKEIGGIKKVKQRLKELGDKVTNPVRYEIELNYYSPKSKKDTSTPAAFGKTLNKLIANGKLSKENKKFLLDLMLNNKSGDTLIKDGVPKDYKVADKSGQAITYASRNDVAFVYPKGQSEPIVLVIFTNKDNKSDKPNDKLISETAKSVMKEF

Row | Compound | MIC (S. aureus FDA 209P) [µg/mL] | MIC (S. aureus 95; [6]) [µg/mL] | MIC (C. albicans; [7]) [µg/mL] | MIC (Ps. aerureus 1101-75; [8]) [µg/mL] | MIC (PS. aerureus 18S-H) [µg/mL] | antibacterial activity in words [1] | antibacterial activity in words, S. aureus FDA 209P (S. aureus FDA 209P) | Minimum Protective Concentration (MPC), β-lactamase of S. aureus 95 [2] [µg/mL] | Minimum Protective Concentration (MPC), β-lactamase of PS. aeruginosa 18S-H [3] [µg/mL] | hydrolysis by / stability towards β-lactamases, in words [4] | β-lactamase inhibitory property, in words [4] | MIC (S. aureus 95; Staphylococcus aureus, 95, read-out: Minimum Inhibitory Concentration (MIC), S. aureus 95) [µg/mL] | activity against β-lactamase producing microorganisms, in words (S. aureus 95) | MIC (C. albicans) [µg/mL] | MIC (Ps. aerureus 1101-75; Pseudomonas aeruginosa, 110175, read-out: Minimum Inhibitory Concentration (MIC), Ps. aerureus 1101-75) [µg/mL] | β-lactam ring destructed (time) [5] [h]
1 | O=C(O)c1cccc(Cc2cc(Cl)cc(Cc3ccccc3O)c2O)c1O [II, 2-(3-Carboxy-2-hydroxybenzyl)-6-(2-hydroxybenzyl)-4-chlorophenol] | 0.86 (≈ 2.23 µM) | 0.43 (≈ 1.12 µM) | 1.43 (≈ 3.72 µM) | 0.02 (≈ 0.052 µM) | 0.1 (≈ 0.26 µM) | more potent antimicrobial activity than that of the model phloroglucide (XXI) |  |  |  |  |  |  |  |  |  | 
2 | O=C(O)c1cccc(C(=O)c2cc(Cl)cc(C(=O)c3ccccc3O)c2O)c1O [III, 2-(3-Carboxy-2-hydroxybenzoyl)-6-(2-hydroxybenzoyl)-4-chlorophenol] | 3.67 (≈ 8.89 µM) | 0.98 (≈ 2.37 µM) | 3.7 (≈ 8.96 µM) | 0.17 (≈ 0.412 µM) | 0.26 (≈ 0.63 µM) | its antimicrobial property decreased; also recorded: In comparison with dicarboxylic acid derivative (XV), mono-carboxylic acid (III) however exhibited greater potency; also recorded: lower efficacy than phenolic acid (II) and phenol (XII) against pathogenic microorganisms |  |  |  |  |  |  |  |  |  | 
3 | COC(=O)c1cccc(Cc2cc(Cl)cc(Cc3ccccc3O)c2O)c1O [IV] | 2.98 (≈ 7.47 µM) | 4.65 (≈ 11.7 µM) | 117 (≈ 294 µM) | 1.25 (≈ 3.13 µM) | 1.56 (≈ 3.91 µM) | lower efficacy than phloroglucides (II) and (III) as well as the bifunctional cephalosporins (VIII) and (IX) |  |  |  |  |  |  |  |  |  | 
4 | O=C(COc1ccccc1)N[C@@H]1C(=O)N2C(C(=O)O)=C(COC(=O)c3cccc(C(=O)c4cc(Cl)cc(C(=O)c5ccccc5O)c4O)c3O)CS[C@H]12 [IX, 3-{3-[5-Chloro-2-hydroxy-3-(2-hydroxybenzoyl)benzoyl]-2-hydroxy-benzoyloxymethyl}-7-phenoxyacetamido-3-cephem-4-carboxylic Acid] | 0.9 (≈ 1.19 µM) | 2.1 (≈ 2.77 µM) | 6.47 (≈ 8.52 µM) | 1.37 (≈ 1.8 µM) | 3.13 (≈ 4.12 µM) |  | greater antibacterial activity than the corresponding phloroglucides (II) and (III) against S. aureus FDA 209P | 4.81 | 5.98 | underwent hydrolysis to liberate their phloroglucidc components |  |  |  |  |  | 
5 | O=C(COc1ccccc1)N[C@@H]1C(=O)N2C(C(=O)O)=C(COC(=O)c3cccc(Cc4cc(Cl)cc(Cc5ccccc5O)c4O)c3O)CS[C@H]12 [VIII, 3-{3-[5-Chloro-2-hydroxy-3-(2-hydroxybenzyl)benzyl]-2-hydroxy-benzoyloxymethyl}-7-phenoxyacetamido-3-cephem-4-carboxylic Acid] | 0.41 (≈ 0.561 µM) | 1.2 (≈ 1.64 µM) | 5.86 (≈ 8.01 µM) | 0.98 (≈ 1.34 µM) | 1.24 (≈ 1.7 µM) | broadened spectrum of antibacterial activity in vitro; also recorded: less activity against other pathogenic microorganisms; also recorded: phloroglucide-like antibacterial activity | greater antibacterial activity than the corresponding phloroglucides (II) and (III) against S. aureus FDA 209P | 7.08 | 6.74 | underwent hydrolysis to liberate their phloroglucidc components |  |  |  |  |  | 
6 | CNC(=O)c1cccc(C(=O)c2cc(Cl)cc(C(=O)c3ccccc3O)c2O)c1O [VII] | 18.1 (≈ 42.6 µM) | 17.8 (≈ 41.7 µM) | 120 (≈ 281 µM) | 6.03 (≈ 14.2 µM) | 8.32 (≈ 19.5 µM) | lower efficacy than phloroglucides (II) and (III) as well as the bifunctional cephalosporins (VIII) and (IX) |  |  |  |  |  |  |  |  |  | 
7 | CNC(=O)c1cccc(Cc2cc(Cl)cc(Cc3ccccc3O)c2O)c1O [VI] | 7.35 (≈ 18.5 µM) | 6.63 (≈ 16.7 µM) | 114 (≈ 287 µM) | 3.28 (≈ 8.24 µM) | 4.7 (≈ 11.8 µM) | lower efficacy than phloroglucides (II) and (III) as well as the bifunctional cephalosporins (VIII) and (IX) |  |  |  |  |  |  |  |  |  | 
8 | COC(=O)c1cccc(C(=O)c2cc(Cl)cc(C(=O)c3ccccc3O)c2O)c1O [V] | 14.7 (≈ 34.4 µM) | 15.3 (≈ 35.9 µM) | 125 (≈ 294 µM) | 5.78 (≈ 13.5 µM) | 4.3 (≈ 10.1 µM) | lower efficacy than phloroglucides (II) and (III) as well as the bifunctional cephalosporins (VIII) and (IX) |  |  |  |  |  |  |  |  |  | 
9 | CC(=O)OCC1=C(C(=O)O)N2C(=O)[C@@H](NC(=O)c3cccc(Cc4cc(Cl)cc(Cc5ccccc5O)c4O)c3O)[C@H]2SC1 [X, 7-{3-[5-Chloro-2-hydroxy-3-(2-hydroxybenzyl)benzyl]-2-hydroxy-benzamido}cephalosporanic Acid] | 0.35 (≈ 0.548 µM) | 0.28 (≈ 0.438 µM) | 28.3 (≈ 44.3 µM) | 0.28 (≈ 0.438 µM) | 0.45 (≈ 0.704 µM) | notable antibacterial activity; also recorded: potent phloroglucide-like antibacterial activity |  | 95.20 | 99.78 | stability towards β-lactamases | did not exhibit notable β-lactamase inhibitory property |  |  |  |  | 
10 | CC(=O)OCC1=C(C(=O)O)N2C(=O)[C@@H](NC(=O)c3cccc(C(=O)c4cc(Cl)cc(C(=O)c5ccccc5O)c4O)c3O)[C@H]2SC1 [XI, 7-{3-[5-Chloro-2-hydroxy-3-(2-hydroxybenzoyl)benzoyl]-2-hydroxy-benzamido}cephalosporanic Acid] | 0.78 (≈ 1.17 µM) | 0.45 (≈ 0.675 µM) | 14.2 (≈ 21.3 µM) | 0.79 (≈ 1.18 µM) | 0.38 (≈ 0.57 µM) | notable antibacterial activity |  | 88.68 | 93.45 | stability towards β-lactamases | did not exhibit notable β-lactamase inhibitory property |  |  |  |  | 
11 | Oc1ccccc1Cc1cc(Cl)cc(Cc2ccccc2O)c1O [XII, reference compound] | 1.2 (≈ 3.52 µM) | 0.58 (≈ 1.7 µM) | 2.06 (≈ 6.04 µM) | 0.07 (≈ 0.205 µM) | 0.18 (≈ 0.528 µM) |  |  |  |  |  |  |  |  |  |  | 
12 | O=C(O)c1cccc(Cc2cc(Cl)cc(Cc3cccc(C(=O)O)c3O)c2O)c1O [XIII, reference compound] | 3.25 (≈ 7.58 µM) | 4.15 (≈ 9.68 µM) | 16.5 (≈ 38.5 µM) | 0.86 (≈ 2.01 µM) | 1.32 (≈ 3.08 µM) |  |  |  |  |  |  |  |  |  |  | 
13 | O=C(O)c1cccc(C(=O)c2cc(Cl)cc(C(=O)c3cccc(C(=O)O)c3O)c2O)c1O [XIV, reference compound] | 18.2 (≈ 40 µM) | 22.2 (≈ 48.6 µM) | 19.1 (≈ 41.9 µM) | 2.54 (≈ 5.56 µM) | 3.06 (≈ 6.7 µM) |  |  |  |  |  |  |  |  |  |  | 
14 | CC(=O)OCC1=C(C(=O)O)N2C(=O)[C@@H](NC(=O)COc3ccccc3)[C@H]2SC1 [XV, reference compound] | 0.7 (≈ 1.72 µM) |  |  |  | > 145 |  |  | 1.35 | 0.97 | susceptible to hydrolysis by β-lactamases |  | > 145 | did not show significant activity | > 145 | > 145 | 
15 | CO/N=C(\C(=O)N[C@@H]1C(=O)N2C(C(=O)O)=C(COC(C)=O)CS[C@H]12)c1csc(N)n1 [XVI, reference compound] | 1.7 (≈ 3.73 µM) | 40.6 (≈ 89.1 µM) | > 145 | 69.9 (≈ 153 µM) | 135 (≈ 296 µM) |  |  | 2.72 | 1.03 | susceptible to hydrolysis by β-lactamases |  |  | did not show significant activity |  |  | 
16 | O=C(O)[C@H]1/C(=C/CO)O[C@@H]2CC(=O)N21 [XVII, clavulanic acid, reference compound] |  |  |  |  |  |  |  | 0.38 | 3.00 |  |  |  |  |  |  | ≤ 13
